Data from US6083932A, “Pharmaceutical compositions derived from ginseng and methods of treatment using same” (CV Technologies Inc., priority 1998, dated 2000).

Columns and labels:
[1] = tested on: 5-hydroxytryptamine uptake; test: 5-hydroxytryptamine uptake in striatal slices; type: biochemical; conditions: 10^-5 M
Description: (§1) We have also investigated the effects of HT1001 on noradrenaline, dopamine and 5-hydroxytryptamine reuptake and monamine oxidase A and B activity in vitro. When compared to amphetamine, HT1001 has little effect on noradrenaline or dopamine uptake. For example, at 10^-4 M (assuming a molecular weight of 900 for HT1001) HT1001 inhibits noradrenaline uptake in hypothalamus slices 3.0% whereas amphetamine at 10^-5 M inhibits uptake by 83%. […] None of these effects are dramatic.

noradrenaline uptake = noradrenaline uptake in hypothalamus slices; type: biochemical; conditions: 10^-5 M
Description: as §1

dopamine uptake = dopamine uptake in striatal slices; type: biochemical; conditions: 10^-5 M
Description: as §1

[2] = tested on: choline uptake into synaptosomes, whole brain; conditions: Benishin 1992 / previously demonstrated; cited from earlier work
[3] = tested on: choline uptake into synaptosomes, whole brain; test: choline uptake into synaptosomes from rat whole brain; type: biochemical; conditions: various doses; n=10
Description: We also studied the effects of HT1001 on choline uptake in synaptosomes.
We have examined choline uptake in synaptosome preparations from whole brain and hippocampus in the presence of Rb1, HT1001 and HC3.
The magnitude of these effects are consistent with the previous studies.

Row | Compound | inhibition of 5-hydroxytryptamine uptake [1] | inhibition of noradrenaline uptake (noradrenaline uptake) | inhibition of dopamine uptake (dopamine uptake) | choline uptake (literature) [2] | choline uptake by rat brain synaptosomes (FIG. 28, in words) [3]
1 | CC(N)Cc1ccccc1 (centres unmarked) [amphetamine] | 94% | 83% | 92.4% |  | 
2 | C[N+]1(C)CCOC(O)(c2ccc(-c3ccc(C4(O)C[N+](C)(C)CCO4)cc3)cc2)C1 (centres unmarked) [HC3] |  |  |  | inhibit choline uptake | inhibits choline uptake
